Source: patent publication US9458104B2 (priority 2012, dated 2016)

Columns and labels:
[1] = molecular target: T1, RORγ ligand binding domain (LBD) (Homo sapiens, UniProt P51449); test: TR-FRET Activity Assay (ligand sensing assay, RORγ-LBD / coactivator peptide interaction); type: biochemical
T1 construct: made in house; host or cells: E. coli BL-21 (BL3), vector pDEST15
T1 sequence (P51449 269-508 limits assumed): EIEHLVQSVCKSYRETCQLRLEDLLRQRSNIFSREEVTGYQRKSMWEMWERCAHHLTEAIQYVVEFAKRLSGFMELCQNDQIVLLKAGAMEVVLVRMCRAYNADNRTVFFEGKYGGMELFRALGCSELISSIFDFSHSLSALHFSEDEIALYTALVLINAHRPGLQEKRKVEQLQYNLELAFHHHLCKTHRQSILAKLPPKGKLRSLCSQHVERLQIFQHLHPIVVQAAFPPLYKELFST
How it was run: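 GST-RORγ LBD expressed in bacteria, 20–60 ng/well, with biotinylated coactivator peptide 200–600 nM, streptavidin-APC and Eu-anti-GST. Buffer: 20 mM Tris-HCl pH 6.8, 60 mM KCl, 1 mM DTT, 5 mM MgCl2, BSA; 1% DMSO. LANCE TR-FRET 665/615 nm ratio; IC50 from four-parameter logistic fit.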

RORγ = molecular target: T2, RORγ (UniProt P51449); type: cell-based; settings: 293T cells, 16 h; for pIC50 (FF): firefly (FF) luciferase; for pIC50 (REN): renilla normalised (RENnorm) luciferase
T2 construct: hRORg-LBD|aa259-518|NP_005051.2; hRORgt|aa1-497|NP_001001523 (RORg, t isoform, 497aa); mRORg-LBD|aa264-516|NP_035411
T2 sequence (P51449 1-518): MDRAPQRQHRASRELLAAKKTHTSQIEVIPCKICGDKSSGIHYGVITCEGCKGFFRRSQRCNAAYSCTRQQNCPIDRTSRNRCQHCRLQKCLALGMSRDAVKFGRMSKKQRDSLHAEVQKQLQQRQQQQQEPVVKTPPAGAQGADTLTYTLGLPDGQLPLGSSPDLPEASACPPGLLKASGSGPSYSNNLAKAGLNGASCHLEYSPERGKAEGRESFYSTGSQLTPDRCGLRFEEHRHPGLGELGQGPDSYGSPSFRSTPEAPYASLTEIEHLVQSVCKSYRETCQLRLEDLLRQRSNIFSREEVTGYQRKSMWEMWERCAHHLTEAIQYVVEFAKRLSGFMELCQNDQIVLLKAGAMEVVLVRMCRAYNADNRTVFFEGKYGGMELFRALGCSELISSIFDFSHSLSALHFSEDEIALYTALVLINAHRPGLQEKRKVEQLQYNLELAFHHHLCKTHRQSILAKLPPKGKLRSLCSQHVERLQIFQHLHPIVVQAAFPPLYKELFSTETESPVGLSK

| Compound | IC50 [1] [nM] | pIC50 (FF) (RORγ) | pIC50 (REN) (RORγ) |
| --- | --- | --- | --- |
| Cn1c(C(=O)N[C@H]2C[C@H](C(=O)O)C2)cc(-c2cc(C(C)(C)C)cc(C3(C)CC3)c2)c1C(=O)C1CCCCC1 [Example 26, trans-3-(4-(3-(tert-Butyl)-5-(1-methylcyclopropyl)phenyl)-5-(cyclohexanecarbonyl)-1-methyl-1H-pyrrole-2-carboxamido)cyclobutanecarboxylic acid] | 501 | 8.5 | 8.5 |
| CC(C)(C)c1cc(-c2cc(C(=O)N[C@H]3C[C@H](C(=O)O)C3)nn2CC2CCCCC2)cc(C2(C)CC2)c1 [Example 100, (trans)-3-(5-(3-(tert-Butyl)-5-(1-methylcyclopropyl)phenyl)-1-(cyclohexylmethyl)-1H-pyrazole-3-carboxamido)cyclobutanecarboxylic acid] | 501 | 6.9 | 7.0 |
| CCNC(=O)c1cc(CC2CCCCC2)n(-c2cc(C(C)(C)C)cc(C(C)(C)C)c2)n1 [Example 102/1] | 631 | 5.9 | 6.0 |
| CC1(CNC(=O)c2nn(-c3cc(C(C)(C)C)nc(C(C)(C)C)c3)c(CC3CCCCC3)c2Cl)COC1 [Example 105, 4-Chloro-5-(cyclohexylmethyl)-1-(2,6-di-tert-butylpyridin-4-yl)-N-((3-methyloxetan-3-yl)methyl)-1H-pyrazole-3-carboxamide] | 6310 | < 4.7 | < 4.7 |
| CC(C)(C)NS(=O)(=O)c1ccc(-c2c(Cl)c(C(=O)N[C@H]3C[C@H](C(=O)O)C3)nn2CC2CCCCC2)cc1C(F)(F)F [Example 108, trans-3-(5-(4-(N-(tert-Butyl)sulfamoyl)-3-(trifluoromethyl)phenyl)-4-chloro-1-(cyclohexylmethyl)-1H-pyrazole-3-carboxamido)cyclobutanecarboxylic acid] | 501 | 6.4 | 6.4 |
| CC(C)(C)NS(=O)(=O)c1ccc(-c2c(F)c(C(=O)NCCC(C)(C)C(=O)O)nn2CC2CCCCC2)cc1C(F)(F)F [Example 109, 4-(5-(4-(N-(tert-Butyl)sulfamoyl)-3-(trifluoromethyl)phenyl)-1-(cyclohexylmethyl)-4-fluoro-1H-pyrazole-3-carboxamido)-2,2-dimethylbutanoic acid] | 501 | 6.7 | 6.8 |
| CC(C)(C)NS(=O)(=O)c1ccc(-c2cc(C(=O)N[C@H]3C[C@H](C(=O)O)C3)nn2CC2CCCCC2)c(Cl)c1Cl [Example 112, trans-3-(5-(4-(N-(tert-Butyl)sulfamoyl)-2,3-dichlorophenyl)-1-(cyclohexylmethyl)-1H-pyrazole-3-carboxamido)cyclobutanecarboxylic acid] | 316 | 6.9 | 6.9 |
| CC(C)(C)NS(=O)(=O)c1ccc(-c2cc(C(=O)NC3CCS(=O)(=O)CC3)nn2CC2CCCCC2)c(Cl)c1Cl [Example 112/1] | 501 | 7.5 | 7.6 |
| Cc1c(C(=O)N[C@H]2C[C@H](C(=O)O)C2)cn(-c2cc(C(C)(C)C)cc(C3(C)CC3)c2)c1C(=O)c1ccccc1 [Example 301, (trans)-3-(5-Benzoyl-1-(3-(tert-butyl)-5-(1-methylcyclopropyl)phenyl)-4-methyl-1H-pyrrole-3-carboxamido)cyclobutanecarboxylic acid] | 501 | 6.7 | 6.8 |
| CCS(=O)(=O)c1ccc(CNC(=O)c2cc(-c3ccc(S(=O)(=O)NC(C)(C)C)c(C(F)(F)F)c3)n(CC3CCCCC3)c2C)cc1 [Example 302, 5-(4-(N-(tert-Butyl)sulfamoyl)-3-(trifluoromethyl)phenyl)-1-(cyclohexylmethyl)-N-(4-(ethylsulfonyl)benzyl)-2-methyl-1H-pyrrole-3-carboxamide] | 6.31 | 7.6 | 7.8 |
| Cc1c(C(=O)NC2CCOCC2)cc(-c2ccc(S(=O)(=O)NC(C)(C)C)c(C(C)(C)C)c2)n1CC(C)(C)C [Example 302/1] | 1580 | 6.3 | 6.4 |
| CC(C)(C)c1cc(-c2cc(C(N)=O)[nH]c2CC2CCCCC2)cc(C(C)(C)C)c1 [Example 303, 5-(Cyclohexylmethyl)-4-(3,5-di-tert-butylphenyl)-1H-pyrrole-2-carboxamide] | 501 | < 4.7 | < 4.7 |
| Cn1c(C(N)=O)cc(-c2cc(C(C)(C)C)cc(C(C)(C)C)c2)c1CC1CCCCC1 [Example 304, 5-(Cyclohexylmethyl)-4-(3,5-di-tert-butylphenyl)-1-methyl-1H-pyrrole-2-carboxamide] | 126 | 6.1 | 6.1 |
| Cc1c(C(N)=O)cn(-c2cc(C(C)(C)C)cc(C(C)(C)C)c2)c1CC1CCCCC1 [Example 305, 5-(Cyclohexylmethyl)-1-(3,5-di-tert-butylphenyl)-4-methyl-1H-pyrrole-3-carboxamide] | 200 | 6.3 | 6.3 |
| CC(C)(C)c1cc(-c2nc(C(N)=O)nn2CC2CCCCC2)cc(C(C)(C)C)c1O [Example 306, 1-(Cyclohexylmethyl)-5-(3,5-di-tert-butyl-4-hydroxyphenyl)-1H-1,2,4-triazole-3-carboxamide] | 794 | 5.9 | 6.0 |
| CC(C)(C)c1cc(-c2nc(C(=O)NC3CC3)nn2CC2CCCCC2)cc(C(C)(C)C)c1 [Example 307, 1-(Cyclohexylmethyl)-N-cyclopropyl-5-(3,5-di-tert-butylphenyl)-1H-1,2,4-triazole-3-carboxamide] | 794 | 5.9 | 6.1 |
| Cc1cc(-c2nc(C(N)=O)nn2CC2CCCCC2)cc(C(C)(C)C)c1O [Example 308, 5-(3-(tert-Butyl)-4-hydroxy-5-methylphenyl)-1-(cyclohexylmethyl)-1H-1,2,4-triazole-3-carboxamide] | 7940 | 6.0 | 5.9 |
| CC(C)(C)c1cc(-c2nc(S(N)(=O)=O)nn2CC2CCCCC2)cc(C(C)(C)C)c1 [Example 309, 1-(Cyclohexylmethyl)-5-(3,5-di-tert-butylphenyl)-1H-1,2,4-triazole-3-sulfonamide] | 3160 | < 4.7 | < 4.7 |
| CC(=O)NS(=O)(=O)c1nc(-c2cc(C(C)(C)C)cc(C(C)(C)C)c2)n(CC2CCCCC2)n1 [Example 310, N-((1-(Cyclohexylmethyl)-5-(3,5-di-tert-butylphenyl)-1H-1,2,4-triazol-3-yl)sulfonyl)acetamide] | 12600 | < 4.7 | < 4.7 |
| CC(C)(C)c1cc(-n2nc(C(N)=O)cc2CC2CCCCC2)cc(C(C)(C)C)c1 [Example 312, 5-(Cyclohexylmethyl)-1-(3,5-di-tert-butylphenyl)-1H-pyrazole-3-carboxamide] | 251 | 6.2 | 6.3 |
| CC(C)(C)c1cc(-n2nc(C(=O)NS(C)(=O)=O)cc2CC2CCCCC2)cc(C(C)(C)C)c1 [Example 312/1] | 6310 | < 4.7 | < 4.7 |
| CC(C)(C)c1cc(-n2nc(C(N)=O)c(Cl)c2CC2CCCCC2)cc(C(C)(C)C)c1 [Example 313, 4-Chloro-5-(cyclohexylmethyl)-1-(3,5-di-tert-butylphenyl)-1H-pyrazole-3-carboxamide] | 100 | 6.3 | 6.4 |
| CC(C)(C)c1cc(-n2nc(C(N)=O)c(Cl)c2CC2CCCCC2)cc(C(C)(C)C)n1 [Example 315, 4-Chloro-5-(cyclohexylmethyl)-1-(2,6-di-tert-butylpyridin-4-yl)-1H-pyrazole-3-carboxamide] | 126 | 6.7 | 6.7 |
| COC(C)(C)c1cc(-n2nc(C(N)=O)c(Cl)c2CC2CCCCC2)cc(C(C)(C)C)c1 [Example 315/1] | 1000 | 6.0/6.0/6.0 | 6.0/6.0/6.0 |
| Cn1c(C(=O)O)cc(-c2ccc(S(=O)(=O)NC(C)(C)C)c3ccccc23)c1CC1CCCCC1 [Example 317, 4-(4-(N-(tert-Butyl)sulfamoyl)naphthalen-1-yl)-5-(cyclohexylmethyl)-1-methyl-1H-pyrrole-2-carboxylic acid] | 1260 | 6.9 | 6.9 |
